# Data from paper PMC9037210, “Novel 3-(6-methylpyridin-2-yl)coumarin-based chalcones as selective inhibitors of cancer-related carbonic anhydrases IX and XII endowed with anti-proliferative activity” (Journal of Enzyme Inhibition and Medicinal Chemistry, 2022).
# What was measured:
# [1] = system: NCI-H23; test: NCI single (10 µM) dose SRB screening, NCI-H23; format: cell-based, human; settings: 10 µM single dose, NCI-H23, NSC lung cancer
# Method: (§1) Following NCI protocol, sixteen MPCs were screened for their potential in vitro anticancer effects against human 59 cancer cell panels including prostate, leukaemia melanoma, colon, breast, CNS, renal, NSCLC, and ovarian cancers by National Cancer Institute (USA)[30].
# (§2) The antiproliferative activities of MPC 3 and MPCs 5a–o were first evaluated in a 10 µM dose assay, with SRB assay used to determine cell survival and proliferation. […] The results of the cell growth inhibitory activities for MPCs 5g and 5l towards the different treated tumour cell lines were presented as GI% and presented in Table 3.
# (§3) The anticancer test was conducted using the methods of the Drug Evaluation Branch, National Cancer Institute, Bethesda, MD, using 59 human tumour cell lines derived from nine human tissues. The GI50, TGI, and LC50 dose-response parameters were calculated for each medication.
# [2] = system: MALME-3M; test: NCI single (10 µM) dose SRB screening, MALME-3M; format: cell-based, human; settings: 10 µM single dose, Melanoma
# Method: as §1, §2, §3
# [3] = system: UACC-257; test: NCI single (10 µM) dose SRB screening, UACC-257; format: cell-based, human; settings: 10 µM single dose, UACC-257, Melanoma
# Method: as §1, §2, §3
# [4] = system: HCT-15; test: NCI single (10 µM) dose SRB screening, HCT-15; format: cell-based, human; settings: 10 µM single dose, HCT-15, Colon cancer
# Method: as §1, §2, §3
# [5] = system: SK-MEL-5; test: NCI single (10 µM) dose SRB screening, SK-MEL-5; format: cell-based, human; settings: 10 µM single dose, SK-MEL-5, Melanoma
# Method: as §1, §2, §3
# [6] = system: U251; test: NCI single (10 µM) dose SRB screening, U251; format: cell-based, human; settings: 10 µM single dose, U251, CNS cancer
# Method: as §1, §2, §3
# [7] = system: COLO 205; test: NCI single (10 µM) dose SRB screening, COLO 205; format: cell-based, human; settings: 10 µM single dose, COLO 205, Colon cancer
# Method: as §1, §2, §3
# [8] = system: CAKI-1; test: NCI single (10 µM) dose SRB screening, CAKI-1; format: cell-based, human; settings: 10 µM single dose, CAKI-1, Renal cancer
# Method: as §1, §2, §3
# [9] = system: SF-539; test: NCI single (10 µM) dose SRB screening, SF-539; format: cell-based, human; settings: 10 µM single dose, SF-539, CNS cancer
# Method: as §1, §2, §3
# [10] = system: T-47D; test: NCI single (10 µM) dose SRB screening, T-47D; format: cell-based, human; settings: 10 µM single dose, Breast cancer
# Method: as §1, §2, §3
# [11] = system: NCI-H322M; test: NCI single (10 µM) dose SRB screening, NCI-H322M; format: cell-based, human; settings: 10 µM single dose, NSC lung cancer
# Method: as §1, §2, §3
# [12] = system: SR; test: NCI single (10 µM) dose SRB screening, SR; format: cell-based, human; settings: 10 µM single dose, Leukaemia
# Method: as §1, §2, §3
# [13] = system: K-562; test: NCI single (10 µM) dose SRB screening, K-562; format: cell-based, human; settings: 10 µM single dose, K-562, Leukaemia
# Method: as §1, §2, §3
# [14] = system: EKVX; test: NCI single (10 µM) dose SRB screening, EKVX; format: cell-based, human; settings: 10 µM single dose, NSC lung cancer
# Method: as §1, §2, §3
# [15] = system: OVCAR-4; test: NCI single (10 µM) dose SRB screening, OVCAR-4; format: cell-based, human; settings: 10 µM single dose, OVCAR-4, Ovarian cancer
# Method: as §1, §2, §3
# [16] = system: OVCAR-3; test: NCI single (10 µM) dose SRB screening, OVCAR-3; format: cell-based, human; settings: 10 µM single dose, OVCAR-3, Ovarian cancer
# Method: as §1, §2, §3
# [17] = system: OVCAR-5; test: NCI single (10 µM) dose SRB screening, OVCAR-5; format: cell-based, human; settings: 10 µM single dose, OVCAR-5, Ovarian cancer
# Method: as §1, §2, §3
# [18] = system: A549/ATCC; test: NCI single (10 µM) dose SRB screening, A549/ATCC; format: cell-based, human; settings: 10 µM single dose, NSC lung cancer
# Method: as §1, §2, §3
# [19] = system: HS 578 T; test: NCI single (10 µM) dose SRB screening, HS 578 T; format: cell-based, human; settings: 10 µM single dose, Breast cancer
# Method: as §1, §2, §3
# [20] = system: UO-31; test: NCI single (10 µM) dose SRB screening, UO-31; format: cell-based, human; settings: 10 µM single dose, UO-31, Renal cancer
# Method: as §1, §2, §3
# [21] = system: SK-MEL-28; test: NCI single (10 µM) dose SRB screening, SK-MEL-28; format: cell-based, human; settings: 10 µM single dose, SK-MEL-28, Melanoma
# Method: as §1, §2, §3
# [22] = system: HOP-62; test: NCI single (10 µM) dose SRB screening, HOP-62; format: cell-based, human; settings: 10 µM single dose, HOP-62, NSC lung cancer
# Method: as §1, §2, §3
# [23] = target: T1, hCA XII (Homo sapiens, UniProt O43570); test: stopped-flow CO2 hydrase assay, hCA XII; format: biochemical; settings: for Selectivity index (SI) (KI off-target CA/KI target CA) Towards hCA XII: ratio of KI for hCA I and II relative to hCA XII; for Ki: stopped-flow, incubation time of 6 h, mean of three assays, read-out: KI CA XII
# T1 construct: made in house
# Method: The newly synthesised MPCs (3 and 5a–o) were assessed for their CA inhibition activity employing the stopped-flow CO2 hydrase assay[29] for constitutional hCA (I/II) isoforms and cancer-linked hCA (IX/XII) isoforms.
# The CA inhibition activity for the herein reported MPC derivatives was evaluated against the hCA isoforms I, II, IX, and XII using stopped-flow CO2 hydrase test[7]^,[33–36] (see the Supplementary Material).
# Carbonic anhydrase inhibition assay
# The carbonic anhydrase catalyzed CO2 hydration actions for all coumarin-based […]
# Photophysics stopped-flow. The enzymes are recombinant proteins prepared in our lab. Phenol red (at a concentration of 0.2 mM) has been used as indicator, working at […]
# mM Na2SO4 (for maintaining constant the ionic strength), following the initial rates of the CA-catalyzed CO2 hydration reaction for a period of 10-100 s. The CO2 concentrations ranged from 1.7 to 17 mM for the determination of the kinetic parameters and inhibition constants. For each inhibitor at least six traces of the initial 5-10% of the reaction have been used for determining the initial velocity. The uncatalyzed rates were determined in the same manner and subtracted from the total observed rates. Stock solutions of inhibitor (0.1 mM) were prepared in distilled-deionized water and dilutions up to 0.01 nM were done thereafter with the assay buffer. Inhibitor and enzyme solutions were preincubated together for 6 hrs. at room temperature prior to assay, in order to allow for the formation of the E-I complex. The inhibition constants were obtained by non-linear least-squares methods using PRISM 3 and the Cheng-Prusoff equation, and represent the mean from at least three different
# [24] = system: SK-MEL-2; test: NCI single (10 µM) dose SRB screening, SK-MEL-2; format: cell-based, human; settings: 10 µM single dose, SK-MEL-2, Melanoma
# Method: as §1, §2, §3
# [25] = system: MCF7; test: NCI single (10 µM) dose SRB screening, MCF7; format: cell-based, human; settings: 10 µM single dose, MCF7, Breast cancer
# Method: as §1, §2, §3
# [26] = system: SK-OV-3; test: NCI single (10 µM) dose SRB screening, SK-OV-3; format: cell-based, human; settings: 10 µM single dose, SK-OV-3, Ovarian cancer
# Method: as §1, §2, §3
# [27] = system: NCI-H226; test: NCI single (10 µM) dose SRB screening, NCI-H226; format: cell-based, human; settings: 10 µM single dose, NCI-H226, NSC lung cancer
# Method: as §1, §2, §3
# [28] = system: SW-620; test: NCI single (10 µM) dose SRB screening, SW-620; format: cell-based, human; settings: 10 µM single dose, SW-620, Colon cancer
# Method: as §1, §2, §3
# [29] = system: RXF 393; test: NCI single (10 µM) dose SRB screening, RXF 393; format: cell-based, human; settings: 10 µM single dose, RXF 393, Renal cancer
# Method: as §1, §2, §3
# T1 sequence (O43570 25-354): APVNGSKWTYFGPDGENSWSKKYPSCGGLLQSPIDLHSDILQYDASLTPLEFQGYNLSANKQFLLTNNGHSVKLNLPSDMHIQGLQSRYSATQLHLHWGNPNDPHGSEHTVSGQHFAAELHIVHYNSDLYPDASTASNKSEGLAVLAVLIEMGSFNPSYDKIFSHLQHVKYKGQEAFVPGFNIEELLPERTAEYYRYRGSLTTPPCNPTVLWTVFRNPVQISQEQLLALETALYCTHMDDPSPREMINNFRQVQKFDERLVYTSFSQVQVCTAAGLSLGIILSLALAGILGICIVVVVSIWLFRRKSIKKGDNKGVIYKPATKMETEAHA
SMILES,GI % [1],GI % [2],GI % [3],GI % [4],GI % [5],GI % [6],GI % [7],GI % [8],GI % [9],GI % [10],GI % [11],GI % [12],GI % [13],GI % [14],GI % [15],GI % [16],GI % [17],GI % [18],GI % [19],GI % [20],also measured
"Cc1nc(-c2cc3ccccc3oc2=O)ccc1C(=O)/C=C/c1ccc(N2CCOCC2)cc1 [Compound 5g, 3-(6-Methyl-5-[(2E)-3-[4-(morpholin-4-yl)phenyl]prop-2-enoyl]pyridin-2-yl)-2H-chromen-2-one]",– (Only GI % more than 20% are displayed.),42%,– (Only GI % more than 20% are displayed.),45%,28%,– (Only GI % more than 20% are displayed.),– (Only GI % more than 20% are displayed.),34%,54%,– (Only GI % more than 20% are displayed.),– (Only GI % more than 20% are displayed.),73%,62%,– (Only GI % more than 20% are displayed.),27%,– (Only GI % more than 20% are displayed.),– (Only GI % more than 20% are displayed.),– (Only GI % more than 20% are displayed.),40%,– (Only GI % more than 20% are displayed.),GI % [21]: 27%; GI % [22]: – (Only GI % more than 20% are displayed.); Selectivity index (SI) (KI off-target CA/KI target CA) Towards hCA XII [23]: >55.56; Ki [23]: 1800 nM; GI % [24]: – (Only GI % more than 20% are displayed.); GI % [25]: 48%; GI % [26]: – (Only GI % more than 20% are displayed.); GI % [27]: – (Only GI % more than 20% are displayed.); GI % [28]: – (Only GI % more than 20% are displayed.); GI % [29]: – (Only GI % more than 20% are displayed.)
"Cc1nc(-c2cc3ccccc3oc2=O)ccc1C(=O)/C=C/c1ccccn1 [Compound 5l, 3-(6-Methyl-5-[(2E)-3-(pyridin-2-yl)prop-2-enoyl]pyridin-2-yl)-2H-chromen-2-one]",44%,– (Only GI % more than 20% are displayed.),– (Only GI % more than 20% are displayed.),133%,– (Only GI % more than 20% are displayed.),92%,– (Only GI % more than 20% are displayed.),39%,97%,47%,– (Only GI % more than 20% are displayed.),112%,92%,– (Only GI % more than 20% are displayed.),– (Only GI % more than 20% are displayed.),53%,39%,33%,– (Only GI % more than 20% are displayed.),41%,GI % [21]: – (Only GI % more than 20% are displayed.); GI % [22]: – (Only GI % more than 20% are displayed.); Selectivity index (SI) (KI off-target CA/KI target CA) Towards hCA XII [23]: >108.70; Ki [23]: 920 nM; GI % [24]: – (Only GI % more than 20% are displayed.); GI % [25]: 91%; GI % [26]: – (Only GI % more than 20% are displayed.); GI % [27]: – (Only GI % more than 20% are displayed.); GI % [28]: 98%; GI % [29]: 67%
